# Key:
# [1] = tested on: human lymphocytes; assay: phytohemagglutinin (PHA) stimulation assay, tritiated thymidine uptake; format: cell-based
# Experimental: A second assay widely used to study immune responsiveness is mitogenic stimulation of thymocytes with antigenic substances of plant origin. The most widely used plant molecule is phytohemagglutinin (PHA).
# The procedure for carrying out the phytohaemagglutinin assay is also well known to those skilled in the art. Briefly, it consists of isolating human lymphocytes as described above, and incubating about 1.0×10^6 cells per ml in a suitable physiological solution with phytohaemagglutinin, and the appropriate concentration of succinylacetone-proline-NH-PEG. Tritiated thymidine is added 48 hours later and allowed to incubate for twenty-four hours before the cells are counted.
# [2] = tested on: IL-2 (human lymphoid cells); assay: IL-2 production in primary mixed lymphocyte reaction (HT-2 cell assay); format: cell-based; set-up: IL-2: unit not given here; details: for IL-2: 1° MLR
# Experimental: Derivatives of succinylacetone were tested for immunosuppressive activity in several different types of assay systems. The first consisted of measuring the amounts of interleukin-2 (IL-2), and interferon-γ (IFN-γ) produced by human lymphoid cells in a mixed lymphocyte reaction. Low levels of these molecules in the reaction mixture indicate that the immune system is being suppressed by the subject succinylacetone derivatives. IL-2 was measured by enumerating the number of viable HT-2 cells found after an 18-24 hours period. HT-2 cells are a mouse IL-2 dependent cell line which die in the absence of IL-2. The assay is described by Gillis et al., J. of Immunol. […] The mixed lymphocyte reaction assay can be carried out by techniques well known to those skilled in the art. L. Hudson and F. C. Huy, Practical Immunology, p. […] Briefly this consists of isolating lymphocytes from human peripheral blood by standard density gradient centrifugation techniques from two separate individuals. Approximately 2×10^5 lymphocytes of each individual are combined to yield a total of 4×10^5 lymphocytes per culture. All procedures are carried out under sterile conditions, and the lymphocytes are isolated and kept in physiologically compatible solutions. To the mixture of lymphocytes is added a desired amount of an appropriate succinylacetone derivative, and after different times an aliquot of the mixture is removed and assayed for IL-2 or IFN-γ, or ^[…] is measured.
# [3] = tested on: adjuvant induced arthritis; assay: adjuvant induced arthritis in rats, overall arthritis score; intraarticular right paw, per kg: succinylacetone 325 μg, methyl ester 150 μg, 4-acetyl-5-oxohexanoate 560 μg; format: in vivo, rat
# [4] = tested on: human lymphoid cells; assay: tritiated thymidine uptake in secondary mixed lymphocyte reaction; format: cell-based; details: 2°-MLR; for inhibition at 740 µM / inhibition at 2200 µM / inhibition at 6700 µM / inhibition at 20000 µM: Homo sapiens, Lymphocyte
# Experimental: In addition to testing the immunosuppressive activities of succinylacetone derivatives in a primary mixed lymphocyte reaction, or a phytohemagglutinin stimulation assay, two of the derivatives, succinylacetone methyl ester and methyl 4-acetyl-5-oxohexanoate, were tested in a secondary mixed lymphocyte reaction assay. The secondary mixed lymphocyte assays differs from the primary mixed lymphocyte reaction assays in that they employ many more primed responder cells that are responsive to the primary stimulating cells. The presence of such responsive cells is a reflection of immunological memory in an ongoing immunological response. […] These cells are then used in the secondary mixed lymphocyte reaction. It is worth noting that because a secondary mixed lymphocyte reaction is greatly enriched for responsive cells, fewer cells can be used in the secondary assay.
# It will be appreciated that described therein is a method for carrying out secondary lymphocyte reactions using mouse cells, however such methods are generally applicable to performing secondary mixed lymphocyte reactions using human cells with modifications that are well known to those skilled in the art. […] The assays were conducted in duplicate involving lymphoid cells isolated from two individuals.
structure (smiles),measurement,setting,value
"COC(=O)CCC(C(C)=O)C(C)=O [Methyl 4-Acetyl-5-Oxohexanoate, methyl 4-acetyl-5-oxohexanoate]",IC50,"[1]; Homo sapiens, Lymphocyte, both assays (two individuals), read-out: concentration causing about 50% inhibition in PHA stimulation",~309 µM
same,"PHA stimulation, cpm ± SD","[1]; first experiment, 3.8 μM",19888 cpm
same,"PHA stimulation, cpm ± SD","[1]; first experiment, 11 μM",19401 cpm
same,"PHA stimulation, cpm ± SD","[1]; first experiment, 34 μM",19399 cpm
same,"PHA stimulation, cpm ± SD","[1]; first experiment, 103 μM",18677 cpm
same,"PHA stimulation, cpm ± SD","[1]; first experiment, 309 μM",14098 cpm
same,"PHA stimulation, cpm ± SD","[1]; first experiment, 926 μM",2776 cpm
same,"PHA stimulation, cpm ± SD","[1]; first experiment, 2.8 mM",116 cpm
same,"PHA stimulation, cpm ± SD","[1]; first experiment, 25 mM",200 cpm
same,"PHA stimulation, cpm ± SD","[1]; first experiment, 83 mM",192 cpm
same,"PHA stimulation, cpm ± SD","[1]; second experiment, 3.8 μM",33799 cpm
same,"PHA stimulation, cpm ± SD","[1]; second experiment, 11 μM",33417 cpm
same,"PHA stimulation, cpm ± SD","[1]; second experiment, 34 μM",34006 cpm
same,"PHA stimulation, cpm ± SD","[1]; second experiment, 103 μM",30569 cpm
same,"PHA stimulation, cpm ± SD","[1]; second experiment, 309 μM",19713 cpm
same,"PHA stimulation, cpm ± SD","[1]; second experiment, 926 μM",5600 cpm
same,"PHA stimulation, cpm ± SD","[1]; second experiment, 2.8 mM",717 cpm
same,"PHA stimulation, cpm ± SD","[1]; second experiment, 25 mM",200 cpm
same,"PHA stimulation, cpm ± SD","[1]; second experiment, 83 mM",156 cpm
same,IL-2,"[2]; Exp I, 3 μM",29
same,IL-2,"[2]; Exp I, 9 μM",46
same,IL-2,"[2]; Exp I, 27 μM",30
same,IL-2,"[2]; Exp I, 81 μM",42
same,IL-2,"[2]; Exp I, 244 μM",17
same,IL-2,"[2]; Exp I, 733 μM",17
same,IL-2,"[2]; Exp I, 2.2 mM",9
same,IL-2,"[2]; Exp I, 6.7 mM",< 6
same,IL-2,"[2]; Exp I, 20 mM",< 6
same,IL-2,"[2]; Exp II, 3 μM",70
same,IL-2,"[2]; Exp II, 9 μM",85
same,IL-2,"[2]; Exp II, 27 μM",52
same,IL-2,"[2]; Exp II, 81 μM",70
same,IL-2,"[2]; Exp II, 244 μM",52
same,IL-2,"[2]; Exp II, 733 μM",70
same,IL-2,"[2]; Exp II, 2.2 mM",35
same,IL-2,"[2]; Exp II, 6.7 mM",< 12
same,IL-2,"[2]; Exp II, 20 mM",< 12
same,IC50,"[2]; Homo sapiens, HT2, primary MLR, read-out: concentration causing 50% reduction in IL-2 production",~2200 µM
same,overall arthritis score,"[3]; Exp. I (treated from same day), day 14",3.2 ± 2.2
same,overall arthritis score,"[3]; Exp. I (treated from same day), day 16",3.4 ± 2.2
same,overall arthritis score,"[3]; Exp. I (treated from same day), day 18",5.0 ± 3.2
same,overall arthritis score,"[3]; Exp. I (treated from same day), day 20",7.0 ± 4.0
same,overall arthritis score,"[3]; Exp. I (treated from same day), day 22",8.2 ± 4.9
same,overall arthritis score,"[3]; Exp. I (treated from same day), day 24",7.2 ± 4.2
same,overall arthritis score,"[3]; Exp. I (treated from same day), day 26",7.2 ± 4.2
same,overall arthritis score,"[3]; Exp. II (treated from day 4), day 14",1.0 ± 1.4
same,overall arthritis score,"[3]; Exp. II (treated from day 4), day 16",2.2 ± 2.5
same,overall arthritis score,"[3]; Exp. II (treated from day 4), day 18",1.8 ± 1.8
same,overall arthritis score,"[3]; Exp. II (treated from day 4), day 20",2.2 ± 2.0
same,overall arthritis score,"[3]; Exp. II (treated from day 4), day 22",5.0 ± 3.5
same,overall arthritis score,"[3]; Exp. II (treated from day 4), day 24",3.4 ± 3.6
same,overall arthritis score,"[3]; Exp. II (treated from day 4), day 26",4.0 ± 3.7
same,overall arthritis score,"[3]; Exp. III (treated from day 14), day 14",2.0 ± 2.0
same,overall arthritis score,"[3]; Exp. III (treated from day 14), day 16",2.4 ± 1.5
same,overall arthritis score,"[3]; Exp. III (treated from day 14), day 18",3.4 ± 2.6
same,overall arthritis score,"[3]; Exp. III (treated from day 14), day 20",5.6 ± 2.7
same,overall arthritis score,"[3]; Exp. III (treated from day 14), day 22",7.4 ± 4.8
same,overall arthritis score,"[3]; Exp. III (treated from day 14), day 24",7.4 ± 5.3
same,overall arthritis score,"[3]; Exp. III (treated from day 14), day 26",7.4 ± 5.3
same,effect on arthritis,"[3]; comparison of treatment schedules, in words",apparently most active when administered every other day from day 4 to day 24
same,CPM,"[4]; Exp I, 247 μM",73805 CPM
same,CPM,"[4]; Exp I, 740 μM",61568 CPM
same,CPM,"[4]; Exp I, 2.2 mM",1995 CPM
same,CPM,"[4]; Exp I, 6.7 mM",112 CPM
same,CPM,"[4]; Exp I, 20 mM",76 CPM
same,CPM,"[4]; Exp II, 247 μM",86893 CPM
same,CPM,"[4]; Exp II, 740 μM",88958 CPM
same,CPM,"[4]; Exp II, 2.2 mM",43264 CPM
same,CPM,"[4]; Exp II, 6.7 mM",4402 CPM
same,CPM,"[4]; Exp II, 20 mM",134 CPM
same,inhibition at 740 µM,"[4]; Exp I, 740 μM",23.6%
same,inhibition at 2200 µM,"[4]; Exp I, 2.2 mM",97.5%
same,inhibition at 6700 µM,"[4]; Exp I, 6.7 mM",9.99%
same,inhibition at 20000 µM,"[4]; Exp I, 20 mM",9.99%
same,inhibition at 740 µM,"[4]; Exp II, 740 μM",4.8%
same,inhibition at 2200 µM,"[4]; Exp II, 2.2 mM",53.7%
same,inhibition at 6700 µM,"[4]; Exp II, 6.7 mM",95.3%
same,inhibition at 20000 µM,"[4]; Exp II, 20 mM",9.99%

# Source: patent US5216005A, “Immunosuppressive analogues and derivatives of succinylacetone” (priority 1990, dated 1993)
